Reference: patent US8022066B2, “2-(2-hydroxyphenyl) benzothiadiazines useful for treating obesity and diabetes” (High Point Pharmaceuticals, LLC, priority 2006, dated 2011)

melting point: 270 to 271 °C (dec.)
SMILES: Cc1c(Br)cc(C(C)(C)C)c(O)c1C1=Nc2cc(Cl)ccc2S(=O)(=O)N1 [Example 1, 4-Bromo-6-tert-butyl-2-(6-chloro-1,1-dioxo-1,2-dihydro-1λ^6-benzo[1,2,4]thiadiazin-3-yl)-3-methylphenol]
